Laboratory results from patent US10421765B2, “Tetrahydropyrido[4,3-d]pyrimidine inhibitors of ATR kinase” (Board of Regents, The University of Texas System, priority 2017, dated 2019).
Where two headings read alike, the source gives them in different places.

Assays:
[1] = target: ATR/ATRIP complex (Homo sapiens (Human), UniProt Q13535); assay: ATR/ATRIP enzymatic assay (Caliper-based); type: biochemical; conditions: FAM-labeled RAD17 peptide, ATP
Method: Human full-length FLAG-TEV-ATR and His6-ATRIP were co-expressed in HEK293 cells. The cell pellet (20 g) was harvested and lysed in 100 mL of lysis buffer (20 mM Tris-HCl pH 7.5 at room temperature, 137 mM NaCl, 10% glycerol, 1 mM DTT, 1% (v/v) Tween-20, 0.1% (v/v) NP-40, complete protease inhibitor cocktail tablets, phosphatase inhibitor cocktail tablets, 2 mM MgCl2, 0.2 mM EDTA, and 1 mM ATP). After sonication and centrifugation, the supernatant was incubated at 4° C. for 3 hours with 1 mL of anti-FLAG resin (Sigma catalog #A2220) that had been pre-equilibrated in buffer A (20 mM Tris-HCl pH 7.5 at room temperature, 137 mM NaCl, 10% glycerol, 1 mM DTT, 2 mM MgCl2, and 0.2 mM EDTA). The sample was loaded into a column, and then washed with buffer A three times. Protein was subsequently eluted with 2 ml of buffer B (buffer A+200 μg/ml 3×FLAG peptide).
The ability of new chemical matter to inhibit the ATR catalytic activity in this ATR/ATRIP complex was assessed using a Caliper-based assay. A 2x enzyme solution (i.e., 4 nM enzyme) was prepared using 1× Kinase Reaction Buffer (25 mM HEPES pH 8, 0.0055% Brij-35, 10 mM MnCl2, and 1 mM DTT). A 2x peptide solution was then prepared consisting of 10 uM FAM-labeled RAD17 peptide (GL Biochem, catalog #524315) in 1× Kinase Reaction Buffer supplemented with 2 μM ATP. 10 μL of the 2× enzyme solution was transferred to an assay plate containing 60 nL of test compound (from a 3× serial dilution) in 100% DMSO. Following a 30 minute incubation at 28° C., 10 μL of the 2× peptide solution was then transferred to the same assay plate. The reaction was allowed to incubate at 28° C. for 6 hours. After adding […] of stop buffer (100 mM HEPES pH 7.5, 0.015% Brij-35, 0.2% Coating-3 Reagent (PerkinElmer, catalog #PN760050), and 50 mM EDTA), data were collected on a Caliper instrument. Conversion values were converted to inhibition values via the following equation: % inhibition=(max−conversion)/(max−min)*100, whereby “max” corresponds to the DMSO control and “min” corresponds to the low control. IC50 values were calculated using the following equation in XLFit: Y=Bottom+(Top−Bottom)/1+(IC50/X)^HillSlope).

[2] = tested on: ATR-driven phosphorylation of Chk1 kinase at Serine 345 in HT-29 colorectal adenocarcinoma cells; assay: pCHK1 cellular assay (CHK1 p-Ser345 AlphaScreen SureFire); type: cell-based; conditions: 4-nitroquinoline N-oxide 12 uM, read-out: Cell IC50 (pCHK1 IC50 values)
Method: Inhibitors of ATR kinase are effective at inhibiting the ATR-driven phosphorylation of the downstream target Chk1 kinase at Serine 345, following the addition of 4-nitroquinoline N-oxide, a chemical used to induce DNA damage. Cellular IC50 for the inhibitors of ATR described herein were measured in HT-29 colorectal adenocarcinoma cells. HT-29 cells were routinely maintained in McCoy's 5A media (ATCC Catalog #30-2007) supplemented with 10% fetal bovine serum (Sigma Catalog #F2442) and 1× Penicillin-Streptomycin (Gibco Catalog #15140-122) using a humidified incubator (37° C., 5% CO2, and ambient O2).
In preparation for the CHK1 (p-Ser345) ALPHASCREEN® SUREFIRE® assay, cells were harvested and resuspended in McCoy's 5A media supplemented with 10% fetal bovine serum and 1× Penicillin-Streptomycin. Cells were seeded onto a 384-well black CELLSTAR® Tissue Culture Plate (VWR Catalog #89085-314) at a density of 13,000 cells/well in a volume of 40 uL. The microplate was incubated overnight (approximately 20 hours) at 37° C. with 5% CO2 and ambient O2. Stock solutions of the test compounds were prepared in 100% DMSO (Sigma, Catalog #D2650) and serially diluted 1:3 using 100% DMSO. Compounds were additionally diluted 1:33 in culture medium, and 10 ul/well were transferred to the tissue culture plate. Following the compound addition the microplate was incubated at 37° C. for 90 minutes. 10 uL of 4-nitroquinoline N-oxide (Sigma Aldrich Catalog #N8141-1G) diluted in media (final concentration 12 uM) were added to the tissue culture plate followed by a 120 minute incubation at 37° C. The cells were then washed with PBS and lysed using 10 uL/well SUREFIRE® Kit lysis buffer diluted to 1× in water (PerkinElmer Catalog #TGRCHK1S50K), with mixing on an orbital shaker at 500 rpm for 20 min at RT. Lysates were frozen at −20° C. overnight.
4 uL/well of lysate was then transferred from the tissue culture plate to a 384-well, white, low volume, PROXIPLATE™ (PerkinElmer Catalog #600828). 5 uL/well of the acceptor bead solution, prepared by diluting SUREFIRE® Kit activation buffer (PerkinElmer Catalog #TGRCHK1S50K) and ALPHASCREEN® Protein A acceptor beads (PerkinElmer Catalog #6760617R) in SUREFIRE® Kit reaction buffer (PerkinElmer Catalog #TGRCHK1S50K), were added to the lysates under subdued light and incubated at room temperature for 120 min. 2 uL/well of the donor bead solution, prepared by diluting ALPHASCREEN® Streptavidin donor beads (PerkinElmer Catalog #6760617R) in SUREFIRE® Kit dilution buffer (PerkinElmer Catalog #TGRCHK1S50K), were added under subdued light and incubated at room temperature for an addition 120 minutes. The pCHK1 ALPHASCREEN® signal was measured using an ENVISION® plate reader (PerkinElmer). IC50 values were calculated using a four-parameter logistic curve fit using Genedata Screener software. Percent of control for each compound concentration was calculated by the following formula: 100*(Compound−Min)/(Max−Min) where “Max” is the high control, DMSO, and “Min” is the low control, 5 uM ATR inhibitor.

[3] = estimated range, read-out: ATR/ATRIP Enzyme IC50 (estimated class)
[4] = Homo sapiens, HT-29, HT-29 cells
[5] = read-out: ATR/ATRIP Enzyme IC50

Chain of ATR/ATRIP complex (Q13535 whole entry): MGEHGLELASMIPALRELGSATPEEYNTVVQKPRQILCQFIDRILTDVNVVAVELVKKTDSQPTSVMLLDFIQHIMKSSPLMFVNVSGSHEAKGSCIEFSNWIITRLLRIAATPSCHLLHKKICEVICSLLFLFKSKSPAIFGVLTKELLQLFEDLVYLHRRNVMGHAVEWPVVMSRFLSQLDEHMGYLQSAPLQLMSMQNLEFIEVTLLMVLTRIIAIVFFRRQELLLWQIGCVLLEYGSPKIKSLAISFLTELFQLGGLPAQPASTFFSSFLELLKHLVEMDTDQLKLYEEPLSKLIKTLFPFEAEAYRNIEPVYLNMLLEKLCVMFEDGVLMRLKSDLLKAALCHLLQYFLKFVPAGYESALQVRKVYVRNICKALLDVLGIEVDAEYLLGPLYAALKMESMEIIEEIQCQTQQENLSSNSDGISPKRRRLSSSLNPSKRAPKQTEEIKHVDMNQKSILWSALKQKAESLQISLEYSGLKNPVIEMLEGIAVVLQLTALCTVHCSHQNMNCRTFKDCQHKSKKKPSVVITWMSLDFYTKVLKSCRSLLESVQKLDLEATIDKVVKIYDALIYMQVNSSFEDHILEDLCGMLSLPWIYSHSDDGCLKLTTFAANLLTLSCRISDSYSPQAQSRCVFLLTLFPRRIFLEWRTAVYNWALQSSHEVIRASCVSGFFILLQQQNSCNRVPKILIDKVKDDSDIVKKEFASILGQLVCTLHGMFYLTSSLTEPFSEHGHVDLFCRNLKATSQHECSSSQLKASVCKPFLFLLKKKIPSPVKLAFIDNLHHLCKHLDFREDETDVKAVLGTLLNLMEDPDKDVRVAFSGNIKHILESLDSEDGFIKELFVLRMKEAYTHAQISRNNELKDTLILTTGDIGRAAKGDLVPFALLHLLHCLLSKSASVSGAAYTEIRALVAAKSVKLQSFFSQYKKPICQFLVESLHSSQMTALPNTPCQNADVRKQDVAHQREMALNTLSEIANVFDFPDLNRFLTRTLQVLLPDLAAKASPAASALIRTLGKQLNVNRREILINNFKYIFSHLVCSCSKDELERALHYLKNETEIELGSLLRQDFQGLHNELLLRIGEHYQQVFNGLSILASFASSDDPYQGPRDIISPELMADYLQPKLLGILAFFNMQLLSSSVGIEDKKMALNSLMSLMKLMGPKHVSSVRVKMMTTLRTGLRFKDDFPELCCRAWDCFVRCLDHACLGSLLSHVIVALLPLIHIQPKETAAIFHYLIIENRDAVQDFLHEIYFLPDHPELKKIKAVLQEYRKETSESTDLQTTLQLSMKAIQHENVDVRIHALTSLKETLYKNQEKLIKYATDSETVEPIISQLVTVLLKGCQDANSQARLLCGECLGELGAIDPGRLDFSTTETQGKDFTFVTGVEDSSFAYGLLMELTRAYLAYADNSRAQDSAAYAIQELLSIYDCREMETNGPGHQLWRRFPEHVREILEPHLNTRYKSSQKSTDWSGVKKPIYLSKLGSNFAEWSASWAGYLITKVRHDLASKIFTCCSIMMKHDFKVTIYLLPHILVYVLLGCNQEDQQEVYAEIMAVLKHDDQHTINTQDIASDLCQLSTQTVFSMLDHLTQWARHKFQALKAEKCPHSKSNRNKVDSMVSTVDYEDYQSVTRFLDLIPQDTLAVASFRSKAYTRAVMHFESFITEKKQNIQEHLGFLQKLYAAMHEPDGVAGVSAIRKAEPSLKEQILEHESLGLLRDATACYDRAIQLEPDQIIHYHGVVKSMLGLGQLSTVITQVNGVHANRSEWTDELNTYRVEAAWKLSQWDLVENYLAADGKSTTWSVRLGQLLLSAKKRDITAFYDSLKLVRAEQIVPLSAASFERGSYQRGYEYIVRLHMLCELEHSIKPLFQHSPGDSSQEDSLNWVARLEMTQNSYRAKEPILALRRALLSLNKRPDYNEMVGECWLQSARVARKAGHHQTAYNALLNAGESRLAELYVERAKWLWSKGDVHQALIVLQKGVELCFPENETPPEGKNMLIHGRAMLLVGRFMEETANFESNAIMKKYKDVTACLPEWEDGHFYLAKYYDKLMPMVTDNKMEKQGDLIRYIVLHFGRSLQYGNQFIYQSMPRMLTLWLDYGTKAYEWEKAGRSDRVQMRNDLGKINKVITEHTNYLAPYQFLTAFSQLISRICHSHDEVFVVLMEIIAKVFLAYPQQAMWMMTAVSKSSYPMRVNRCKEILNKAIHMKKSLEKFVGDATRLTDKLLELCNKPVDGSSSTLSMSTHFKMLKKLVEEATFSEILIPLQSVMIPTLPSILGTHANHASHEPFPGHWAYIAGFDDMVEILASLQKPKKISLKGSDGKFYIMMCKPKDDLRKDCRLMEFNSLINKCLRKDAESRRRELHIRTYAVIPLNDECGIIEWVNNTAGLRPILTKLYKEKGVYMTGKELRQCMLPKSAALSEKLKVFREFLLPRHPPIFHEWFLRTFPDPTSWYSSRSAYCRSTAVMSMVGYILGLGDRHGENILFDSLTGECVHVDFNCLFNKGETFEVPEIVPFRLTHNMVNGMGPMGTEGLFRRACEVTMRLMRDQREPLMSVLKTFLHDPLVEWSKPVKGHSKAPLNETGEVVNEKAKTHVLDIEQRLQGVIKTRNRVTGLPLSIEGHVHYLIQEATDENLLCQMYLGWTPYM
Chain of ATR/ATRIP complex (Q8WXE1 whole entry partner): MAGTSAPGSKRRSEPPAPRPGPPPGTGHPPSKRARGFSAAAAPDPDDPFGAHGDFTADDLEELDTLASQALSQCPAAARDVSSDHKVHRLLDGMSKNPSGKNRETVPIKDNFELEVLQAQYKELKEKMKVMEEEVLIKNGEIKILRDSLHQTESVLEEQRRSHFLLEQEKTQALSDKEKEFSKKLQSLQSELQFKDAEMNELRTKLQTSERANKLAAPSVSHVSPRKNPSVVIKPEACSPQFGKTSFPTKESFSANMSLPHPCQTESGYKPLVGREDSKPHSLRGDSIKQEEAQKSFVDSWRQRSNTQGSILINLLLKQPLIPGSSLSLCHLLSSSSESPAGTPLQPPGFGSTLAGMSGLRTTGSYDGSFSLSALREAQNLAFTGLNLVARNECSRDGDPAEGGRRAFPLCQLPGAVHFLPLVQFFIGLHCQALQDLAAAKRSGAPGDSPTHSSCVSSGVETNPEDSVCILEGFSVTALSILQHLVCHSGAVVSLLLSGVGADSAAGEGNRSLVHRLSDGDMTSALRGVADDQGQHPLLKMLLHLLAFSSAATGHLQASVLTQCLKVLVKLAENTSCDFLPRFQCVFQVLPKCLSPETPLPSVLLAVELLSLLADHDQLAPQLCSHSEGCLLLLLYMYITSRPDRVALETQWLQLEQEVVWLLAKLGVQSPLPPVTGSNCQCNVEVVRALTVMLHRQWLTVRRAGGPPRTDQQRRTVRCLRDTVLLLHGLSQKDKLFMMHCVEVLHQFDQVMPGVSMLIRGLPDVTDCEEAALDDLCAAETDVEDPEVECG

Row | Compound | IC50 [1, 3] [nM] | IC50 [2, 4] [nM] | IC50 [1, 5] [nM] | IC50 ([2]; HT-29 cells) [nM] | ATR/ATRIP Enzyme IC50 [1]
1 | CCS(=O)(=O)N1CCCC(c2ncnc3c2CN(c2cc(Cl)nc4[nH]ccc24)[C@H](C)C3)C1 (stereo partly drawn) [Example 24, 3-[(7R)-6-{6-chloro-1H-pyrrolo[2,3-b]pyridin-4-yl}-7-methyl-5H,6H,7H,8H-pyrido[4,3-d]pyrimidin-4-yl]-1-(ethanesulfonyl)-piperidine] | 1000 to 10000 | 285 |  |  | 
2 | CS(=O)(=O)N1CCC(c2ncnc3c2CN(c2ccnc4[nH]ccc24)CC3)CC1 [Example 2, 4-(1-(Methylsulfonyl)piperidin-4-yl)-6-(1H-pyrrolo[2,3-b]pyridin-4-yl)-5,6,7,8-tetrahydropyrido[4,3-d]pyrimidine bis(trifluoroacetate)] | 1000 to 10000 | 1940 |  |  | 
3 | C[C@@H]1Cc2ncnc(N3CCC(O)(C4CC4)CC3)c2CN1c1cc(Cl)nc2[nH]ccc12 [Example 75, (R)-1-(6-(6-chloro-1H-pyrrolo[2,3-b]pyridin-4-yl)-7-methyl-5,6,7,8-tetrahydropyrido[4,3-d]pyrimidin-4-yl)-4-cyclopropylpiperidin-4-ol] |  | 34 | 246 |  | 
4 | C[C@@H]1Cc2ncnc(N3CCC(NS(C)(=O)=O)CC3)c2CN1c1cc(Cl)nc2[nH]ccc12 [Example 29, N-{1-[(7R)-6-{6-chloro-1H-pyrrolo[2,3-b]pyridin-4-yl}-7-methyl-5H,6H,7H,8H-pyrido [4,3-d]pyrimidin-4-yl]piperidin-4-yl}methanesulfonamide] |  | 13 | 120 |  | 
5 | N-((1R,5S,8R)-3-((R)-7- methyl-6-(1H-pyrrolo- [2,3-b]pyridin-4-yl)- 5,6,7,8-tetrahydropyrido- [4,3-d]pyrimidin-4-yl)-3- azabicyclo[3.2.1]octan-8- yl)methanesulfonamide [Example 74] |  |  | 279 | 31 | 
6 | CCOc1cc(N2Cc3c(ncnc3C3CCN(S(C)(=O)=O)CC3)C[C@H]2C)c2cc[nH]c2n1 [Example 54, (R)-6-(6-ethoxy-1H-pyrrolo[2,3-b]pyridin-4-yl)-7-methyl-4-(1-(methylsulfonyl)piperidin-4-yl)-5,6,7,8-tetrahydropyrido[4,3-d]pyrimidine] |  | 10 | 123 |  | 
7 | C[C@@H]1Cc2ncnc([C@H]3CCN(S(C)(=O)=O)C(C)(C)C3)c2CN1c1ccnc2[nH]ccc12 (single isomer, unassigned) [Example 48b] |  |  | 435 | 79 | 
8 | CC(C)Oc1cc(N2Cc3c(ncnc3C3CCN(S(C)(=O)=O)CC3)C[C@H]2C)c2cc[nH]c2n1 [Example 93, (R)-6-(6-isopropoxy-1H-pyrrolo[2,3-b]pyridin-4-yl)-7-methyl-4-(1-(methylsulfonyl)piperidin-4-yl)-5,6,7,8-tetrahydro-pyrido[4,3-d]pyrimidine] |  | 15 | 87 |  | 
9 | C[C@@H]1Cc2ncnc(C3=C[C@@H]4CC[C@H](C3)N4S(C)(=O)=O)c2CN1c1cc(Cl)nc2[nH]ccc12 [Example 60, (R)-6-(6-chloro-1H-pyrrolo[2,3-b]pyridin-4-yl)-7-methyl-4-((1S,5R)-8-(methylsulfonyl)-8-azabicyclo[3.2.1]oct-2-en-3-yl)-5,6,7,8-tetra-hydropyrido[4,3-d]-pyrimidine] |  | 22 | 66 |  | 
10 | CS(=O)(=O)N1CCC(c2ncnc3c2CN(c2ccnc4[nH]ccc24)[C@@H](C(F)F)C3)CC1 [Example 53a, (R)-7-(difluoromethyl)-4-(1-(methylsulfonyl)piperidin-4-yl)-6-(1H-pyrrolo[2,3-b]pyridin-4-yl)-5,6,7,8-tetrahydropyrido[4,3-d]pyrimidine] |  | 10000 |  |  | no fit
11 | C[C@@H]1Cc2ncnc(N3CCCN(S(C)(=O)=O)CC3)c2CN1c1ccnc2[nH]ccc12 [Example 19, 1-methanesulfonyl-4-[(7R)-7-methyl-6-{1H-pyrrolo[2,3-b]pyridin-4-yl}-5H,6H,7H,8H-pyrido[4,3-d]pyrimidin-4-yl]-1,4-diazepane] | 1000 to 10000 | 162 |  |  | 
12 | C[C@@H]1Cc2ncnc(N3C[C@H]4CC[C@@H](C3)[C@@H]4NS(C)(=O)=O)c2CN1c1cc(Cl)nc2[nH]ccc12 [Example 38, N-((1R,5S)-(8-anti)-3-((R)-6-(6-chloro-1H-pyrrolo[2,3-b]pyridin-4-yl)-7-methyl-5,6,7,8-tetrahydropyrido[4,3-d]pyrimidin-4-yl)-3-azabicyclo[3.2.1]octan-8-yl)methanesulfonamide] |  | 83 | 929 |  | 
13 | C[C@@H]1Cc2ncnc(C3CCN(S(C)(=O)=O)CC3)c2CN1c1cc(OCC(F)(F)F)nc2[nH]ccc12 [Example 96, (R)-7-methyl-4-(1-(methylsulfonyl)piperidin-4-yl)-6-(6-(2,2,2-tri-fluoroethoxy)-1H-pyrrolo[2,3-b]pyridin-4-yl)-5,6,7,8-tetrahydro-pyrido[4,3-d]pyrimidine] |  | 22 | 321 |  | 
14 | C[C@@H]1Cc2ncnc(N3CCC(C)(O)CC3)c2CN1c1cc(Cl)nc2[nH]ccc12 [Example 66, (R)-1-(6-(6-chloro-1H-pyrrolo[2,3-b]pyridin-4-yl)-7-methyl-5,6,7,8-tetrahydropyrido[4,3-d]-pyrimidin-4-yl)-4-methyl-piperidin-4-ol] |  | 25 | 584 |  | 
15 | C[C@@H]1Cc2ncnc(N3CCN(S(C)(=O)=O)C(C)(C)C3)c2CN1c1cc(Cl)nc2[nH]ccc12 [Example 21, 4-[(7R)-6-{6-chloro-1H-pyrrolo[2,3-b]pyridin-4-yl}-7-methyl-5H,6H,7H,8H-pyrido[4,3-d]pyrimidin-4-yl]-1-methanesulfonyl-2,2-dimethylpiperazine] | 1000 to 10000 | 57 |  |  | 
16 | COC(=O)N1CCC(c2ncnc3c2CN(c2cc(Cl)nc4[nH]ccc24)[C@H](C)C3)CC1 [Example 25, methyl 4-[(7R)-6-{6-chloro-1H-pyrrolo[2,3-b]pyridin-4-yl}-7-methyl-5H,6H,7H,8H-pyrido [4,3-d]pyrimidin-4-yl]piperidine-1-carboxylate] |  | 28 | 899 |  | 
